“And” between values parts separate entries of the source, which are not always exact repeats. Equal entries are not always repeated.
Experiment: xn = mol fraction of the nth substance listed

COc1ccccc1N + ClC(Cl)C(Cl)Cl
viscosity [mPa·s], 100 kPa
Conditions | x1 = 0.0911 | x1 = 0.1962 | x1 = 0.2806 | x1 = 0.3816 | x1 = 0.4976 | x1 = 0.6023 | x1 = 0.7116 | x1 = 0.8104 | x1 = 0.9212
303.15 K | 1.786 | 2.165 | 2.464 | 2.82 | 3.224 | 3.584 | 3.957 | 4.291 | 4.66
308.15 K | 1.673 | 2.029 | 2.309 | 2.639 | 3.013 | 3.347 | 3.692 | 4.001 | 4.337
313.15 K | 1.562 | 1.895 | 2.154 | 2.458 | 2.802 | 3.111 | 3.427 | 3.709 | 4.012

COCCOC + O=Cc1ccccc1
298.15 K, 101 kPa
Conditions | viscosity [mPa·s]
x1 = 0.1157 | 1.225
x1 = 0.2274 | 1.082
x1 = 0.3354 | 0.954
x1 = 0.4398 | 0.841
x1 = 0.5408 | 0.741
x1 = 0.6385 | 0.655
x1 = 0.7332 | 0.58
x1 = 0.8249 | 0.515
x1 = 0.9138 | 0.458

COC(C)=O + CCOC(C)=O
viscosity, 101 kPa
Conditions | 298.15 K | 313.15 K
x1 = 0.0544 | 0.432 mPa·s | 0.372 mPa·s
x1 = 0.0916 | 0.429 mPa·s | 0.37 mPa·s
x1 = 0.2242 | 0.418 mPa·s | 0.361 mPa·s
x1 = 0.3041 | 0.412 mPa·s | 0.357 mPa·s
x1 = 0.3995 | 0.405 mPa·s | 0.351 mPa·s
x1 = 0.5024 | 0.399 mPa·s | 0.346 mPa·s
x1 = 0.5482 | 0.396 mPa·s | 0.344 mPa·s
x1 = 0.6054 | 0.392 mPa·s | 0.341 mPa·s
x1 = 0.7024 | 0.387 mPa·s | 0.337 mPa·s
x1 = 0.8025 | 0.381 mPa·s | 0.333 mPa·s
x1 = 0.9028 | 0.377 mPa·s | 0.33 mPa·s
x1 = 0.9548 | 0.376 mPa·s | 0.33 mPa·s
x2 = 0.07815 | 0.3638 mPa·s | –
x2 = 0.189 | 0.3713 mPa·s | –
x2 = 0.3264 | 0.3801 mPa·s | –
x2 = 0.4453 | 0.3876 mPa·s | –
x2 = 0.5532 | 0.3943 mPa·s | –
x2 = 0.7914 | 0.4098 mPa·s and 0.4098 mPa·s | –
x2 = 0.8752 | 0.4158 mPa·s | –

OC[C@@H](O)[C@H](O)[C@@H](O)CO + O
viscosity [mPa·s], 101.3 kPa
Conditions | x1 = 0.00359 | x1 = 0.007154 | x1 = 0.0107 | x1 = 0.01421 | x1 = 0.0177 | x1 = 0.02631 | x1 = 0.03478 | x1 = 0.0431 | x1 = 0.05127
293.15 K | 1.06 | 1.14 | – | 1.32 | – | 1.72 | 2.09 | 2.42 | 2.85
303.15 K | 0.85 | 0.91 | 0.99 | 1.04 | – | 1.33 | 1.53 | 1.8 | 2.1
313.15 K | 0.69 | 0.78 | 0.79 | 0.83 | 0.9 | 1.02 | 1.19 | 1.38 | 1.6
323.15 K | 0.58 | 0.62 | – | 0.69 | 0.75 | 0.85 | 0.96 | 1.1 | 1.25

OCCNCCO + O=S1(=O)CCCC1
viscosity [mPa·s], 101 kPa
Conditions | x2 = 0.0999 | x2 = 0.2999 | x2 = 0.4687 | x2 = 0.6712 | x2 = 0.8322
303.15 K | 262.7 | 125.4 | 63.49 | 14.99 | 12.62
323.15 K | 73.14 | 32.73 | 15.33 | 9.455 | 7.362

OCCNCCO + CN1CCCC1=O
viscosity [mPa·s], 101 kPa
Conditions | 293.15 K | 303.15 K | 313.15 K | 323.15 K
x2 = 0.1012 | 457.2 | 211.6 | 100.2 | 38.39
x2 = 0.1941 | – | 103.8 | 43.29 | 27
x2 = 0.2002 | 222.2 | 106.2 | 60.47 | 24.87
x2 = 0.3004 | 85.35 | 47.36 | 28.26 | 17.59
x2 = 0.4003 | 53.69 | 31.19 | 19.32 | 12.45
x2 = 0.4024 | – | 31.82 | 15.04 | 10.25
x2 = 0.4998 | 27.76 | 16.74 | 10.6 | 7.513
x2 = 0.5851 | – | 16.32 | 7.42 | 6.32
x2 = 0.6003 | 16.21 | 9.543 | 5.75 | 3.961
x2 = 0.7 | 7.618 | 5.537 | 4.107 | 3.18
x2 = 0.7962 | – | 8.38 | 4.04 | 3.22
x2 = 0.7997 | 4.326 | 3.448 | 2.746 | 2.257
x2 = 0.8994 | 2.841 | 2.318 | 1.927 | 1.63

CCC(C)=O + Cc1ccc(C)cc1
307.35 K, 101.33 kPa
Conditions | viscosity [mPa·s]
x1 = 0.1273 | 0.515
x1 = 0.311 | 0.48
x1 = 0.3949 | 0.457
x1 = 0.5326 | 0.434
x1 = 0.5913 | 0.419
x1 = 0.6949 | 0.401
x1 = 0.7871 | 0.388

COC(C)=O + CCCCCCCCO
viscosity [mPa·s], 101 kPa
Conditions | x2 = 0.053 | x2 = 0.1119 | x2 = 0.1776 | x2 = 0.2515 | x2 = 0.3351 | x2 = 0.4305 | x2 = 0.5404 | x2 = 0.6684 | x2 = 0.8194
298.15 K | 0.436 | 0.505 | 0.601 | 0.736 | 0.932 | 1.232 | 1.722 | 2.573 | 4.177
303.15 K | 0.414 | 0.478 | 0.564 | 0.685 | 0.86 | 1.126 | 1.554 | 2.288 | 3.646
308.15 K | 0.395 | 0.454 | 0.532 | 0.64 | 0.795 | 1.029 | 1.402 | 2.03 | 3.174
313.15 K | 0.374 | 0.429 | 0.5 | 0.596 | 0.734 | 0.941 | 1.267 | 1.808 | 2.773

COc1ccccc1N + CCC(C)=O
viscosity [mPa·s], 100 kPa
Conditions | x1 = 0.0814 | x1 = 0.1724 | x1 = 0.2543 | x1 = 0.3412 | x1 = 0.4394 | x1 = 0.5191 | x1 = 0.6354 | x1 = 0.7587 | x1 = 0.8677
303.15 K | 0.785 | 1.225 | 1.615 | 2.024 | 2.477 | 2.84 | 3.362 | 3.906 | 4.373
308.15 K | 0.727 | 1.145 | 1.51 | 1.888 | 2.31 | 2.648 | 3.136 | 3.642 | 4.073
313.15 K | 0.669 | 1.064 | 1.403 | 1.751 | 2.142 | 2.455 | 2.907 | 3.376 | 3.77

CCC(C)=O + CCCCCCC
298 K, 101.33 kPa
Conditions | viscosity [mPa·s]
x2 = 0.1271 | 0.3686
x2 = 0.2092 | 0.3655
x2 = 0.3055 | 0.3637
x2 = 0.4593 | 0.3646
x2 = 0.5955 | 0.3649
x2 = 0.7044 | 0.3677
x2 = 0.8014 | 0.3721
x2 = 0.9011 | 0.3789

Reference: the CheMixHub viscosity set
